The values below are quoted from earlier work in US6943160B2, “Morpholine derivatives as antagonists of orexin receptors” (SmithKline Beecham plc, priority 2000, dated 2005).

Data set [1] has as its system orexin receptors. To be noted: central administration at onset of normal sleep period, rat.
Data set [2] relates to freely-feeding rats. The conditions noted are these: central administration, 4 hour time period.

On to “orexin-A: ligand (agonist) of the orexin receptors; human orexin-A has sequence SEQ ID NO: 1, pyroEPLPDCCRQKTCSCRLYELLHGAGNHAAGILTL-NH2”, for which the effect on arousal entry in data set [1] was “dose-related increase in arousal”. In addition, the “increase in food intake over control rats receiving vehicle” value in data set [2] was “approximately four-fold”.
